Tests used:
Assay type in all cases: binding
Details in all cases: Compound Concentration 10 µM
[1] = biological target: T1, panel of 442 kinases (Homo sapiens, UniProt Q13163)
T1 construct: purchased KINOMEscan
T1 sequence (Q13163 1-448): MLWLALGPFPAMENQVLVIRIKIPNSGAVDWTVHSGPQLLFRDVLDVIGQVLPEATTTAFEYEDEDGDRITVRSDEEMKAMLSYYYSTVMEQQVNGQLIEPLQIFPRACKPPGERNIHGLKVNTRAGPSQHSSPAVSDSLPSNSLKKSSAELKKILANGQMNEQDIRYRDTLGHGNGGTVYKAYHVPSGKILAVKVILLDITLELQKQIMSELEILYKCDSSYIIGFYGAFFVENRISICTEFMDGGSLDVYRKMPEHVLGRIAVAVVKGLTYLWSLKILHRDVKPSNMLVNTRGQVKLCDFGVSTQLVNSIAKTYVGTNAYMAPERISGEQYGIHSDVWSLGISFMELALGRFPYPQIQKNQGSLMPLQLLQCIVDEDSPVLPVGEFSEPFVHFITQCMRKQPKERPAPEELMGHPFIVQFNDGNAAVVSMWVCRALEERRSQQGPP
Excerpt: (§1) We assessed the selectivity of members of this scaffold using the KINOMEscan methodology across a near comprehensive panel of 442 kinases [[18,27]].

[2] = biological target: T2, panel of 442 kinases (Homo sapiens, UniProt O60674)
T2 construct: purchased KINOMEscan
T2 sequence (O60674 whole entry): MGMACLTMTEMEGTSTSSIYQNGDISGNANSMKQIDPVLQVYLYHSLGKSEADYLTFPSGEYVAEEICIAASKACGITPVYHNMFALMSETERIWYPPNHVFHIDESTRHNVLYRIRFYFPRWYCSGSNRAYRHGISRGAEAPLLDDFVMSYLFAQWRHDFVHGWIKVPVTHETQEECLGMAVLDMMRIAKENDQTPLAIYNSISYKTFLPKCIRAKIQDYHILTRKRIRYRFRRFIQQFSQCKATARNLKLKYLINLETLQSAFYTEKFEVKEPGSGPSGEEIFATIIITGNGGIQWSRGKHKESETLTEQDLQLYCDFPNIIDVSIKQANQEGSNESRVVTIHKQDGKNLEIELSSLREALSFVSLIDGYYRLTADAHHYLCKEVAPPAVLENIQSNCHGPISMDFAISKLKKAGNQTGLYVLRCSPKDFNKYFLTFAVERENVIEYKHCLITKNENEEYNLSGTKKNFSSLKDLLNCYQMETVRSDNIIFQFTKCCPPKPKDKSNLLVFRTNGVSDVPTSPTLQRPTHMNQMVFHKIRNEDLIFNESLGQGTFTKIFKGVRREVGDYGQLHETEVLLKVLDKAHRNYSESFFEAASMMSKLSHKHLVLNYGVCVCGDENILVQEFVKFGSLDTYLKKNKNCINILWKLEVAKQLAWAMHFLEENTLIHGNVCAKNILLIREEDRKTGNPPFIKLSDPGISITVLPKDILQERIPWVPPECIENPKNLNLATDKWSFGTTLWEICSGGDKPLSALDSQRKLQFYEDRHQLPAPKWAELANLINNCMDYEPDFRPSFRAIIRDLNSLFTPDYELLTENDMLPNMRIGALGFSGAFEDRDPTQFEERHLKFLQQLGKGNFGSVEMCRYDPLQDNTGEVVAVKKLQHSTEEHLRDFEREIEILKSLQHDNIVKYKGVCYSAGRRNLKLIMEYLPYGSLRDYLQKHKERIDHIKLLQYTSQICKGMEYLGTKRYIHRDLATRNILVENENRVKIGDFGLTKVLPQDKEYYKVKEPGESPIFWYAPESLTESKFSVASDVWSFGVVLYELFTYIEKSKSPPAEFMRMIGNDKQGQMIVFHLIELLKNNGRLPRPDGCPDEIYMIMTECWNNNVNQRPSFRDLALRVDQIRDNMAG
Excerpt: as §1

[3] = biological target: T3, panel of 442 kinases (Homo sapiens, UniProt P10721)
T3 construct: purchased KINOMEscan
T3 sequence (P10721 26-976): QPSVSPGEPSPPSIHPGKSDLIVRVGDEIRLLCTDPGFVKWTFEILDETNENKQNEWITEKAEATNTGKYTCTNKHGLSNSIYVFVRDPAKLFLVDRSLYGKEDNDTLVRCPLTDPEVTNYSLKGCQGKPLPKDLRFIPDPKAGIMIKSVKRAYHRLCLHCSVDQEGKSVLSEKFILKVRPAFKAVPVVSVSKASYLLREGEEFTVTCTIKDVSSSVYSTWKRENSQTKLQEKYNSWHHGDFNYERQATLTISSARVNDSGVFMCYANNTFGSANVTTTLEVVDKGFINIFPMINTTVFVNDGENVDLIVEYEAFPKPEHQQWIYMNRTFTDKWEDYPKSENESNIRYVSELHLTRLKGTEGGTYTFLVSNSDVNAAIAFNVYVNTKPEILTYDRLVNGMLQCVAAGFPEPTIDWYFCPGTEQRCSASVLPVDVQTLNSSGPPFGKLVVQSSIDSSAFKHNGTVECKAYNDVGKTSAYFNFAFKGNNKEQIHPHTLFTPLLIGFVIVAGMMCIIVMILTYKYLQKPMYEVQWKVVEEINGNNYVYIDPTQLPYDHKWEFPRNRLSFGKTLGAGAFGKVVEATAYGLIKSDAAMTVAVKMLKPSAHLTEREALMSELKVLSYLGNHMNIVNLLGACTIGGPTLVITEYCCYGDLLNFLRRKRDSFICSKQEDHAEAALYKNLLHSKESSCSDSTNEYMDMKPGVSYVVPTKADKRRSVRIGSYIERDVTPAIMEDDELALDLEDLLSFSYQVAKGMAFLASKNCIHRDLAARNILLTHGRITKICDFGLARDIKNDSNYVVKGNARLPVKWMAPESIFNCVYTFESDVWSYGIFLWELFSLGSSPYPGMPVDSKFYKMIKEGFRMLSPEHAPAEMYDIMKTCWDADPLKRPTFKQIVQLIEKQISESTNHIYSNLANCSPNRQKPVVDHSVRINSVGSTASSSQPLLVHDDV
Excerpt: as §1

Row | SMILES | KINOMEscan: MEK5 [1] | KINOMEscan: JAK2(JH1domain-catalytic) [2] | KINOMEscan: KIT [3]
1 | CCOc1cc(C(=O)N2CCC(N3CCN(C)CC3)CC2)ccc1Nc1ncc2c(n1)N(C1CCCC1)c1ccccc1C(=O)N2C [Compound 26] | 100 | 100 | 100
2 | COc1cc(C(=O)N2CCC(N3CCN(C)CC3)CC2)ccc1Nc1ncc2c(n1)N1CCc3cccc(c31)C(=O)N2C [Compound 24] | 28 | – | –
3 | COc1cc(C(=O)N2CCC(N3CCN(C)CC3)CC2)ccc1Nc1ncc2c(n1)N(C)c1ccccc1C(=O)N2C [15 (LRRK2-IN-1)] | 85 | 70 | 100
4 | COc1cc(C(=O)N2CCC(N3CCN(C)CC3)CC2)ccc1Nc1ncc2c(n1)N(C1CCCC1)c1ccccc1C(=O)N2C [Compound 25, 11-cyclopentyl-2-((2-methoxy-4-(4-(4-methylpiperazin-1-yl)piperidine-1-carbonyl)phenyl)amino)-5-methyl-5H-benzo[e]pyrimido[5,4-b][1,4]diazepin-6(11H)-one] | 83 | 95 | 91
